Reference: patent US8800906B2, “Use of transforming growth factor-beta neutralizing antibodies and fusion proteins thereof in treating pain” (The Board of Trustees of the Leland Stanford Junior …, priority 2010, dated 2014)

How the values were obtained:
[1] = tested on: rat DRG neurons; experiment: Whole-cell patch-clamp excitability of cultured DRG neurons; type: cell-based
Procedure: Dorsal Root Ganglia (DRG) neurons culture. Adult Sprague-Dawley rats (120-150 g) were sacrificed by decapitation. Thoracic and lumbar DRGs were then bilaterally dissected out and transferred to ice-cold Minimal Essential Medium (Gibco, Grand Island, N.Y.) supplemented with penicillin-streptomycin (2×, Gibco, Grand Island, N.Y.). After trimming axons and connective tissue, ganglia were transferred into enzyme solution, i.e., Hank's Balanced Salt Solution containing 5 mg/ml collagenase (Type 2, Worthington, Lakewood, N.J.), and incubated for three hours at 5% CO2-95% O2 37° C. A pellet was subsequently obtained by repeated trituration through flame-polished glass pipettes and centrifuged at 50×g for 10 minutes. Single cells were resuspended and plated onto poly-1-ornithine (Sigma) coated coverslips with neurobasal media (Gibco) supplemented with albumin solution (0.7%, Sigma), penicillin-streptomycin (2×), B27 with retinoic acid (2×, Invitrogen), beta-mercaptoethanol (0.11 mM, Gibco), mouse nerve growth factor ([…], Promega, Madison, Wis.) and L-glutamine (2×, Gibco). Recombinant TGF-β1 and TGF-β2 (Calbiochem, cat #616455, PF017) were dissolved in 10% ethanol in phosphate buffered saline (PBS) to yield a stock concentration of 10 ng/μl. TGF-β1 or TGF-β2 (10 ng/ml) was added to cultures at the beginning of incubation at 37° C. 5% CO2-95% O2.
(§1) Electrophysiology. Whole-cell voltage patch-clamp recordings were conducted at room temperature (22-23° C.) on the stage of an inverted phase contrast microscope (Nikon Inc., Melville, N.Y.). The recording pipettes were pulled from borosilicate glass to give final resistances of […]. Data were acquired with Digidata interface (1200 series, Axon Instruments) and pClamp software (version 9.1, Axon Instruments). The concentrations of the electrode solutions (in mM) used in these experiments were as follows: for recording action potential, K^+ current and non-selective cationic current (pH adjusted to 7.3-7.4 using KOH): potassium gluconate (115), KCl (25), NaCl (5), HEPES (10), CaCl (1), EGTA (1.12) and ATP-Mg (2); for recording Na^+ current (pH adjusted to 7.3-7.4 using NaOH): CsF (110), MgCl2 (5), EGTA (11), NaCl (10) and HEPES (10). The cells were bathed in modified Tyrode saline consisting of (in mM): NaCl (135), KCl (5.4), MgCl2 (1), CaCl2 (2), NaH2PO3 (0.1), HEPES (10) and glucose (10). The osmolality was maintained at 280-300 mOsm for the intracellular electrolyte and 300-330 mOsm for the extracellular bath solution. […] Action potentials were recorded in mode of I-clamp after observed membrane potential setting at I=0, and the currents were recorded by switching mode to v-clamp. The current signals were recorded to disk for off-line analysis using pCLAMP fit and Origin 7. Results were expressed as means±SE, n=number of cells.

[2] = tested on: DRG neurons; experiment: Patch-clamp excitability of DRG neurons from transgenic mice lacking glial TGF-β receptor response; type: cell-based, mouse
From the text: Transgenic mice. To decrease the response to TGF-β specifically in astrocytes, we took advantage of a dominant negative mutation in the type II TGF-β receptor that has been cloned into a bidirectional doxycycline-regulatable element (bi-tetO) that also drives enhanced green fluorescent protein (GFP). Andrews, Z. B. et al., 2006 Neurobiol Dis. 21, 568-75. TetO-TBR2-DN mice were obtained from Jackson Laboratories, Bar Harbor, Me. This line was crossed to a GFAP-tTA transgenic line (Jackson Laboratories). This line confers expression of tetO transgenes to astrocytes in the absence of doxycycline, and is induced by injuries, including stroke. DRGs were dissected from these mice and cultured as above.
(§2) Electrophysiology. Whole-cell voltage patch-clamp recordings were conducted at room temperature (22-23° C.) on the stage of an inverted phase contrast microscope (Nikon Inc., Melville, N.Y.). The recording pipettes were pulled from borosilicate glass to give final resistances of […]. Data were acquired with Digidata interface (1200 series, Axon Instruments) and pClamp software (version 9.1, Axon Instruments). The concentrations of the electrode solutions (in mM) used in these experiments were as follows: for recording action potential, K^+ current and non-selective cationic current (pH adjusted to 7.3-7.4 using KOH): potassium gluconate (115), KCl (25), NaCl (5), HEPES (10), CaCl (1), EGTA (1.12) and ATP-Mg (2); for recording Na^+ current (pH adjusted to 7.3-7.4 using NaOH): CsF (110), MgCl2 (5), EGTA (11), NaCl (10) and HEPES (10). The cells were bathed in modified Tyrode saline consisting of (in mM): NaCl (135), KCl (5.4), MgCl2 (1), CaCl2 (2), NaH2PO3 (0.1), HEPES (10) and glucose (10). The osmolality was maintained at 280-300 mOsm for the intracellular electrolyte and 300-330 mOsm for the extracellular bath solution. Agents such as capsaicin, capsazepine, TEA, 4AP, TTX etc were delivered through a valve control system (BPS-4, Scientific Instrument, New York). Prior to patch clamping a cell, the amplifier (Axopatch 200B, Axon Instruments, CA, USA) was zeroed so that any junction potential was balanced by an offset potential. High resistance (Gigaohm) seals were formed between the recording electrode and cell membrane and ruptured by suction using standard patch clamp recording methods. Action potentials were recorded in mode of I-clamp after observed membrane potential setting at I=0, and the currents were recorded by switching mode to v-clamp. The current signals were recorded to disk for off-line analysis using pCLAMP fit and Origin 7. Results were expressed as means±SE, n=number of cells.

[3] = tested on: Kv channels; experiment: Voltage-dependent K+ currents in DRG neurons; type: cell-based, rat
Procedure: as §2
TGF-β influences K^+ and Na^+ channel activity (FIGS. 6 and 7). Voltage-dependent potassium (Kv) currents play a fundamental role in determining neuronal excitability. […]

[4] = tested on: sodium channel; experiment: Sodium channel currents in DRG neurons; type: cell-based, rat
Procedure: as §1, with “(10).” for “(10). The osmolality was maintained at 280-300 mOsm for the intracellular electrolyte and 300-330 mOsm for the extracellular bath solution.”, “cells. […]” for “cells.”

[5] = target: T1, TRPV1 (Rattus norvegicus, UniProt O35433); experiment: Capsaicin-induced inward current in DRG neurons; type: cell-based
T1 construct: endogenous in cells; host or cells: primary rat DRG neurons
T1 sequence (O35433 whole entry): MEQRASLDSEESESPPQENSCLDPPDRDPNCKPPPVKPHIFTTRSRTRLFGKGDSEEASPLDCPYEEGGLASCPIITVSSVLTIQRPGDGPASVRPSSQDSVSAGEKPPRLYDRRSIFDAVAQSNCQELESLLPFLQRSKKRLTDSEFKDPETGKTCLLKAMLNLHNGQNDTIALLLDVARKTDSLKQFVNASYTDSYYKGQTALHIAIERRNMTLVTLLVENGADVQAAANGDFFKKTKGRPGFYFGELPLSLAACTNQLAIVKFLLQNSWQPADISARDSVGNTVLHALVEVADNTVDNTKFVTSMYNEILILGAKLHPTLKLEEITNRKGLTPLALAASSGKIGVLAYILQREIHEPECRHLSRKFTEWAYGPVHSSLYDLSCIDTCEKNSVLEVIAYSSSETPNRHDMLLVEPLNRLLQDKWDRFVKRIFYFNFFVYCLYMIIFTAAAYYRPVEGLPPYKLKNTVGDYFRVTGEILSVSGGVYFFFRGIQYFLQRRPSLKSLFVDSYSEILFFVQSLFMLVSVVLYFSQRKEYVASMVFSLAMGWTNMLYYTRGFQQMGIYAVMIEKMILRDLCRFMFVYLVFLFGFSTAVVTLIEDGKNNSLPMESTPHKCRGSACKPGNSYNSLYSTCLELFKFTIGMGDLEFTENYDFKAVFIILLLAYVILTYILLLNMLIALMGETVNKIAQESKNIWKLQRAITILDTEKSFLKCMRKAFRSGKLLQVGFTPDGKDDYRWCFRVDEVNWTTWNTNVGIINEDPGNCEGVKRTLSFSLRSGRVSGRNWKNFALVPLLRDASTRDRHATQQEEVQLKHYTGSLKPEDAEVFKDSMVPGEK
Procedure: as §1, with “(10).” for “(10). The osmolality was maintained at 280-300 mOsm for the intracellular electrolyte and 300-330 mOsm for the extracellular bath solution.”, “cells. […]” for “cells.”

[6] = tested on: TGF-β1, TGF-β2, and TGF-β3; settings: cited from earlier work
[7] = target: T2, SMAD3 (Rattus norvegicus, UniProt P84025); experiment: Excitability of DRG neurons with TGF-β and SIS3; type: cell-based; settings: SIS3 3 μM
T2 construct: endogenous in cells; host or cells: primary DRG neurons
T2 sequence (P84025 whole entry): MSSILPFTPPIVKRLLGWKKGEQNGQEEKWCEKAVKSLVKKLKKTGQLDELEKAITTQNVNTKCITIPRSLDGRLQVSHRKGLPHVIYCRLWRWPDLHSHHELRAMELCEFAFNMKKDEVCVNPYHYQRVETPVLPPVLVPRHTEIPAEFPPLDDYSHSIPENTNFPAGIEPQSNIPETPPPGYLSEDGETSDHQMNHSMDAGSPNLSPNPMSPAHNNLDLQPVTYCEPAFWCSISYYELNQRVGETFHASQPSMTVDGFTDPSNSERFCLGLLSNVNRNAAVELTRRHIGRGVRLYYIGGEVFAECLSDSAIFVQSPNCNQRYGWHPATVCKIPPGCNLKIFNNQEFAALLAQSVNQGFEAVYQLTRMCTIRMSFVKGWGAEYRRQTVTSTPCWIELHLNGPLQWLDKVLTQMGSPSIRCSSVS
Procedure: SIS3 was dissolved in DMSO and diluted in culture media that was added at the time of plating with a final concentration of 3 μM. After one hour, the culture wells received TGF-β1 (0.2 ng/ml) for further incubation. Most cells were patched at 12-24 h, and both agents were refreshed daily if incubated for over 24 h.

[8] = target: SMAD3 (Homo sapiens, UniProt P84022); settings: cited from earlier work
Chain of SMAD3 (Homo sapiens, UniProt P84022) (P84022 whole entry, the tested form may be a part): as the sequence (P84025 whole entry) above

[9] = tested on: conscious rats; experiment: Nocifensive behaviors to electrical stimulation of the pancreas after intrapancreatic infusion of TGF-β; type: in vivo; settings: intra-pancreatic infusion, 400 ng per rat
Procedure: Intrapancreatic infusion of TGF-β. Rats were anesthetized with sodium nembutal (Abbott Laboratories, Chicago, Ill.) (50 mg/kg body weight, i.p.). The peritoneum was incised to expose the duodenum, and the duodenal loop was pulled out. The pancreatic duct entering the duodenum was identified under dissecting microscope, and a small niche was made into the duct with a 30-gauge needle. A polyethylene 10 tubing (0.61 mm outer diameter) (Becton Dickinson and Company, Franklin Lakes, N.J.) was guided into the duct and tied to secure its position. The position of the tube in the pancreatic duct was confirmed by observing bile flowing through the tubing. The common bile duct was ligated close to the liver to prevent entry of the injected substance into the liver. Similarly the duct was ligated near its entry into the duodenum. Four hundred μl (0.4 ml) per rat of 400 ng of TGF-β1 or TGF-β2 in 10% ethanol in phosphate buffered saline (PBS) or vehicle alone was injected through a syringe connected to the tubing. The tubing was carefully removed and bile flow from the liver into the duodenum was re-established. The abdominal cavity was closed with sutures and rats allowed to recover.
Behavioral Studies of Rats with Chronic Pancreatitis. […] The number of nocifensive behaviors observed during 5 min of stimulation period was counted. […]

[10] = tested on: SMAD3; settings: cited from earlier work
[11] = tested on: spinal cord laminae I/II FOS positive cells; experiment: FOS immunochemistry in spinal cord after intrapancreatic TGF-β infusion and electrical stimulation; type: in vivo, rat; settings: intra-pancreatic infusion 400 ng followed by ES
Procedure: FOS Immunochemistry. Eight rats were used for this experiment (TGF-β n=4; Vehicle n=4). TGF-β2 (400 ng) in 0.4 ml of 10% ETOH/PBS or vehicle alone were infused into pancreatic duct of rats. 24 hours later rats underwent noxious electrical stimulation of the pancreas (5 mA for 5 minutes). Thirty minutes later the rats were transcardially perfused with 150 ml of normal saline followed by ice cold 400 ml of 4% paraformaldehyde in 0.1M phosphate buffer (PB) pH 7.4. Spinal cord segments corresponding to DRG T8-T10 were identified, cut and post-fixed in 4% paraformaldehyde over night. The samples were then transferred to 30% sucrose in 0.1 M PB for 24 hours at 4° C. followed by freezing on dry ice with optimum cutting temperature (OCT). Frozen serial coronal sections (35 μm) were cut on a cryostat, collected in separate wells of a 24-well plate and stored floating in antifreeze at −20° C. We processed a total of 6 sections per segment. The sections were stained with a rabbit polyclonal primary antiserum directed against FOS (ab7963, Abcam, Cambridge Mass.), diluted (1:2000) in PB saline containing 3% normal goat serum and 0.1% Triton X-100, for 24 h at 4° C. […] The number of FOS positive cells in spinal cord laminae I/II were counted under 40× magnification from 6 slices per individual spinal segment per animal by two blinded investigators.

TGF-β
resting membrane potential (RMP) ([1]; rat DRG cultures exposed to TGF-β, n=21): −48.8±7.6 mV | proportion of tested cells showing multiple action potentials ([1]; rat DRG neurons): 43% | current pulse (rheobase) required for triggering an action potential ([1]; rat DRG neurons, n=11): 0.15±0.09 nA | number of action potentials evoked by two times rheobase current stimulation ([1]; rat DRG neurons, n=17): 2.75 Hz | RMP ([2]; transgenic mouse DRG preparations, 10 ng/ml): −49.7±5.5 mV | tested neurons showing an absence of IA current ([3]; TGF-β treated neurons): 11 of 22 | Itotal density ([3]; all Kv channels, DRG neurons in culture): did not result in a significant reduction | IA density ([3]; at +30 mV, n=10): 29.6±3.8 pA/pF | density of TTXR current ([4]; n=7): 114.25±27.32 | density of total INa ([4]; n=23): 216.12±15.01 | capsaicin induced current ([5]; neurons treated with TGF-β, n=17): 724.7±129.4 pA

GC1008: humanized TGF-β-neutralizing monoclonal antibody
neutralization of TGF-β ligands/isoforms [6]: capable of neutralizing all three TGF-β isoforms

Oc1cc2c(cc1O)CN(C(=S)NCCc1ccc(Cl)cc1)CCC2 [capsazepine, reference compound]
effect on capsaicin-induced inward current ([5]; middle sized neurons): suppressible

Cc1cc2c(cc1C)CN(C(=O)/C=C/c1c(-c3ccccc3)n(C)c3ncccc13)CC2.Cl [SIS3]
decrease in RMP induced by TGFβ ([7]; TGF-β 10 ng/ml, 48 hours): prevented the decrease in RMP | TGF-β1 induced changes in frequency of action potentials at 2× rheobase current ([7]; TGF-β1 0.2 ng/ml): attenuate | TGF-β1 induced changes in resting membrane potential (RMP) ([7]; TGF-β1 0.2 ng/ml): attenuate | TGF-β1 induced changes in rheobase ([7]; TGF-β1 0.2 ng/ml): attenuate | production of extracellular matrix ([8]; TGF-β1-treated normal fibroblasts and scleroderma fibroblasts): blocked excessive production of extracellular matrix | Smad3 phosphorylation [8]: suppresses Smad3 phosphorylation

TGF-β1: Recombinant TGF-β1 (Calbiochem)
behavioral response to noxious stimulation (electric stimulation, ES) [9]: hyperalgesic behavioral response | rheobase ([2]; transgenic mouse DRG): 0.03 nA | firing threshold ([2]; transgenic mouse DRG, n=7): −35 mV | spikes ([2]; transgenic mouse DRG, n=7): 2.8±1.5

NC(=O)c1ccc(-c2nc(-c3ccc4c(c3)OCO4)c(-c3ccccn3)[nH]2)cc1 [SB431542]
Smad3 phosphorylation [10]: selective inhibition of Smad3 phosphorylation

B1: TGF-β2: Recombinant TGF-β2 (Calbiochem) (protein, UniProt P61812 303-414, looked up)
Transforming growth factor …: ALDAAYCFRNVQDNCCLRPLYIDFKRDLGWKWIHEPKGYNANFCAGACPYLWSSDTQHSRVLSLYNTINPEASASPCCVSQDLEPLTILYYIGKTPKIEQLSNMIVKSCKCS
modifications: Transforming growth factor beta-2
behavioral response to noxious stimulation (electric stimulation, ES) [9]: hyperalgesic behavioral response | FOS expression in the spinal cord [11]: greater FOS expression
